Measured values reported in patent publication US20050181076A1, “Compositions and methods for treatment of diabetes” (priority 1999, published 2005).

How the values were obtained:
diabetics = assay: Brickellia flavonoids administered to diabetics; type: in vivo; settings: for effectiveness in treating diabetes: alone or in combination; for results in diabetics compared with the extract: flavonoids extracted and fractionated from Brickellia californica
Excerpt: The flavonoids specifically used were dihydrokaemferol and apigenin, a flavone. […] I have discovered an underlying “molecular switch” that controls both forms of diabetes. This “switch” can be operated by luteolin and similar flavonoids.

[1] = tested on: Type 1 (BB/Wor) diabetic rats; assay: single luteolin treatment in chronic Type I diabetic rats, blood glucose 0-6 hours; type: in vivo, rat; settings: for average blood glucose at 6 hours: from 415 (insulin) and 445 (luteolin) mg/dl at time 0; for decrease in blood glucose levels: within 6 hours, luteolin 3 mg intragastrically, PZI insulin 0.9-1.2 mU/day subcutaneous
Procedure: Animal tests of luteolin were made at BRM (Biomedical Research Models, Inc.) an East coast contract research organization (CRO) that specializes in diabetes research. […] Historically, these strains have been widely used in similar pre-clinical studies to predict anti-diabetogenic efficacy. […] In this study, lean male diabetics were randomly assigned to 3 treatment groups (3-4 rats/group). […] Blood glucose was evaluated from time 0 through 6 hours (11 AM-5 PM). […] This response was fully consistent with prior work in the Type I rat model. […] In comparison, there was no reduction in the hyperglycemic state in the control group over the same interval (414 to 404 mg/dl).

[2] = tested on: diabetic test animals (rats and mice); assay: Brickellia extract and flavonoids in diabetic test animals; type: in vivo
Procedure: It is believed that the Brickellia californica extract includes the flavonoids dihydrokaemferol, apigenin, luteolin, myricetin and quercetin. Further, the many other species of Brickellia contain these, or similar flavonoids, albeit in different proportions, and should also be effective in treatment of diabetes. Experiments with diabetic test animals (rats and mice) were carried out. […] Further, the administration of synthetic versions of the Brickellia flavonoids were also effective at lowering glucose levels.

[3] = tested on: Type II (BBZDR/Wor) diabetic rats; assay: luteolin dose study in chronic Type 2 diabetic rats over 24 hr; type: in vivo, rat
Procedure: Animal tests of luteolin were made at BRM (Biomedical Research Models, Inc.) an East coast contract research organization (CRO) that specializes in diabetes research. […] Historically, these strains have been widely used in similar pre-clinical studies to predict anti-diabetogenic efficacy.
First, a 24 hour baseline study was performed on 9 chronic Type 2 rats. We found no significant change in hyperglycemia over this 24 hour period of analysis in the diabetic rats. […] Blood glucose analysis was evaluated every 2 hours.
Unfortunately, that animal died sometime before the 24 hr time point as a result of an accidental perforation of the esophagus during the administration of drug.

[4] = tested on: Type II (BBZDR/Wor) diabetic rats; assay: extended (two weeks) luteolin treatment of obese Type II diabetic rats; type: in vivo, rat
Excerpt: In the next experiment we elected to provide these same rats with a standardized dose over an extended period of treatment. […] The data were expressed for each rat as a percentage change in blood glucose level relative to each individual pre-treatment level.

[5] = target: Kv1.3 voltage gated potassium channel (Homo sapiens, UniProt P22001); assay: patch clamp analysis of Kv1.3 block; type: cell-based
Sequence of Kv1.3 voltage gated potassium channel (P22001 whole entry): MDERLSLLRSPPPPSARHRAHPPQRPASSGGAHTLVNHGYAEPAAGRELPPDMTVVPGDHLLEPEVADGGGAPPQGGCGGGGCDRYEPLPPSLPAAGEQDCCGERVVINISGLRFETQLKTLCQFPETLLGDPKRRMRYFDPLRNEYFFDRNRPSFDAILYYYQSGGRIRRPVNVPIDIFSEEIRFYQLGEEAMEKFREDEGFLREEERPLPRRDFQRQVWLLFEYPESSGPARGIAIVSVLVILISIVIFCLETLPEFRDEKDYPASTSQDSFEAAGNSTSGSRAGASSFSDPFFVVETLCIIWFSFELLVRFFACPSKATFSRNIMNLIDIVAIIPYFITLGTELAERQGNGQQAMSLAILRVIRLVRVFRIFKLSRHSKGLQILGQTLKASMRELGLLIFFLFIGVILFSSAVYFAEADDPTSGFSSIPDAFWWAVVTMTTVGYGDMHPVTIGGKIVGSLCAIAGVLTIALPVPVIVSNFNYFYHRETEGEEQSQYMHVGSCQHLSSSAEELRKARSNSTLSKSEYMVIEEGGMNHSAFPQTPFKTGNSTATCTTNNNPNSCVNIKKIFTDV
Excerpt: When the toxic CD8^− Natural Killer Cells combines with the CD4^− Helper T Cells at cystein they electronically stimulate calmodulin. This voltage sensor activates one of the 80+ super gene channels necessary for the activation of the CD4^− and CD8^− T Cells, Kv1.3 a voltage gated potassium channel. If this channel is not activated by calmodulin the T-Cells remain in their resting states. […] There are 200 pores in a resting Beta cell. When cell potential reaches 1.3 nVolts, the Kv1.3, voltage gated potassium channel opens to expose the tyrosine kinase tails. These kinases when stimulated turn on the ras-Oncogene, a cancer promoter, which turns on Protein Kinase C, another tumor promoter. These drive the Nuclear Factors of the Activated T-Cell, such as cAMP; which stimulates the susceptibility genes associated with diabetes such as those on chromosome 19q13.3. These in turn produce InterLeukin-2, an inflammatory cytokine messenger signaling further T-Cell proliferation. When CD8^− cells sample the external receptors of the Beta cell, they find and bind to laminin to sites, such as AGM1, and releases InterLeukin-2 upon calcium loading. This inflammatory cytokine causes cell activation and suppression of insulin release. […]

With `O=c1c(O)c(-c2cc(O)c(O)c(O)c2)oc2cc(O)cc(O)c12` [myricetin] the “effectiveness in treating diabetes” value (diabetics) was “effective in treating diabetes”.
For insulin [reference compound], the “average blood glucose at 6 hours” value [1] was 112 mg/dL and the “decrease in blood glucose levels” value [1] was 75%.
For `O=C1c2c(O)cc(O)cc2O[C@H](c2ccc(O)cc2)[C@H]1O` [dihydrokaemferol], the “results in diabetics compared with the extract” value (diabetics) was “results similar to those produced by the extract”.
With `O=c1cc(-c2ccc(O)c(O)c2)oc2cc(O)cc(O)c12` [luteolin] the “rank among treatments involving a single flavonoid” value [2] was “the most effective agent”, the “effectiveness in treating diabetes” value (diabetics) was “effective in treating diabetes” and the “decrease in blood glucose levels, 50 mg three times a day” value ([3]; Type 2 diabetic rats, 150 mg total, within 24 hr) was 10.2%. For the same molecule, the “drop in blood glucose, 150 mg three times a day” value ([3]; Type 2 diabetic rats, 450 mg total, 24 hr) was 22.9%, the “decrease in glucose, 250 mg three times a day” value ([3]; Type 2 diabetic rats, 750 mg total, 24 hr) was 27.7% and the “reduction of hyperglycemia over all doses” value ([3]; Type II diabetic rats, over a 24 hour period, dose-dependent) was 10-28%. For the same molecule, the “reduction of blood glucose in one rat” value ([3]; one Type 2 rat, intermediate dose (150 mg), within 18 hr) was 52%, the “blood glucose of one rat after treatment” value ([3]; one Type 2 rat, intermediate dose, from 777 mg/dl, within 18 hr) was 372 mg/dL and the “average drop of blood glucose levels” value ([4]; Type II rats, 50 mg 3x/day for two weeks) was 41.1%. For the same molecule, the “average blood glucose after treatment” value ([4]; Type II rats, 50 mg 3x/day for two weeks, from 660 mg/dl) was 389 mg/dL, the “increase in blood glucose in one rat” value ([4]; one rat with esophageal fistula that likely prohibited effective dosing, 50 mg 3x/day two weeks) was 9.3% and the “block of Kv1.3 channel at 100 nM” value ([5]; luteolin tested at 100 nM, cell remained in its resting state) was “blocked completely”. The “block of Kv1.3 channel” value ([5]; patch clamp analysis) was “blocks this channel”, the “average blood glucose at 6 hours” value [1] was 307 mg/dL and the “decrease in blood glucose levels” value [1] was 31%.
`O=c1cc(-c2ccc(O)cc2)oc2cc(O)cc(O)c12` [apigenin] was tested, and the “results in diabetics compared with the extract” value (diabetics) was “results similar to those produced by the extract”.
